Test results as given in patent US20090123391A1, “Novel Formulations” (3M INNOVATIVE PROPERTIES COMPANY, priority 2006, published 2009).

What was measured:
[1] = Dose Through Unit (DTU) dose uniformity of MDI; type: physicochemical; settings: for overall mean dose of medicament delivered through the actuator, combining beginning and end of use doses / overall mean dose delivered through the actuator, combined beginning and end of use: HFA 134a; for overall mean dose delivered through the actuator, combining beginning and end of use: Example 4: Compound A in combination with Compound D, HFA-134a MDI 100/100 μg/act, target output compound D 90 μg, compound A 90 μg; for overall mean dose delivered through the actuator, combined beginning and end of use: Example 5: Compound E in combination with Compound A, MDI 100/50 μg/act, target output Compound E 90 μg, Compound A 45 μg
Description: The dose collection apparatus (500 ml separatory funnel with a cotton plug) was assembled and the flow rate was set to 20 L/min. Test units were stored at ambient conditions for two weeks after manufacture prior to DTU testing. For the testing at the beginning of the unit, the MDIs were primed two times with a priming actuator and four times to waste with the test actuator, shaking the units between each actuation. Two test actuations were collected in the dose collection apparatus, shaking the unit between actuations. The collection apparatus was rinsed with an appropriate volume of diluent, and the rinsate with the collected dose was analyzed by conventional HPLC analysis. For end of unit testing, the MDIs were actuated an additional 48 times to waste, shaking between each actuation. The MDIs were then actuated four times to waste through a new test actuator. Two test actuations were then collected in the dose collection apparatus, shaking the unit between actuations. The collection apparatus was rinsed with an appropriate volume of diluent, and the rinsate with the collected dose was analyzed by conventional HPLC analysis.
The reported results are the average of ten units at both the beginning and end of unit use.

[2] = Andersen Cascade Impactor (ACI) fine particle fraction of MDI; type: physicochemical; settings: for Fine Particle Fraction (FPF) expressed as percentage of 25 μg, the total dose target: Example 1: Compound A MDI, 25 μg/act; for Fine Particle Fraction (FPF) expressed as percentage of 25 μg, the total dose target / Fine Particle Fraction expressed as a percentage of the total dose target, for Compound B, 10 μg and for the Compound A, 25 μg / Fine Particle Fraction (FPF) expressed as a percentage of the total dose target, for Compound C, 12.5 μg and for Compound A, 25 μg / Fine Particle Fraction (FPF) expressed as percentage of the total dose target of Compound E, 100 μg and for Compound A, 50 μg: HFA 134a; for Fine Particle Fraction expressed as a percentage of the total dose target, for Compound B, 10 μg and for the Compound A, 25 μg: Example 2: Compound A in combination with Compound B; for Fine Particle Fraction expressed as a percentage of the total dose target, for Compound B, 10 μg and for the Compound A, 25 μg / Fine Particle Fraction (FPF) expressed as a percentage of the total dose target, for Compound C, 12.5 μg and for Compound A, 25 μg: MDI; for Fine Particle Fraction (FPF) expressed as a percentage of the total dose target, for Compound C, 12.5 μg and for Compound A, 25 μg: Example 3: Compound A in combination with Compound C, 25/12.5 μg/act; for Fine Particle Fraction (FPF) expressed as a percentage of the total dose target, for Compound D, 100 μg, and for Compound A, 100 μg: Example 4: Compound A in combination with Compound D, HFA-134a MDI 100/100 μg/act; for Fine Particle Fraction (FPF) expressed as percentage of the total dose target of Compound E, 100 μg and for Compound A, 50 μg: Example 5: Compound E in combination with Compound A, MDI 100/50 μg/act
From the text: The fine particle fraction of the aerosol formulations according to the invention may be measured by conventional techniques, for example, by cascade impaction by measuring particle size distribution. The Cascade Impactor is designed to mimic the human buccal cavity and bronchial tract and the cascade Impactor test is designed to reveal the amount of deposition of inhaled drug substance at various stages thereof. As used herein reference to the “cascade impaction” assay means determination of the deposition of the emitted dose in pressurised inhalations as defined in European Pharmacopoeia, Section 2.9.18, 5th edition “Preparations for Inhalation, Apparatus D”. Such techniques enable the “respirable fraction” of the aerosol formulations to be calculated. One method used to calculate the “respirable fraction” is by reference to “fine particle fraction” which is the amount of active ingredient collected in stages 3 to 5 (aerodynamic diameter 1.1-4.7 μm) which represents the lung, per actuation expressed as a percentage of the total amount of active ingredient delivered per actuation using the cascade impactor method described above. Earlier stages represent the aerosol device itself, the throat and the upper reaches of the bronchial tract, and the later stages representing potential systemic absorption through the wall of the lung which may cause serious side effects.
The Andersen Cascade Impactor Mark II (ACI) was assembled and the flow rate was set to 28.3 L/min. The units were primed four times with the test actuator prior to dose collection, shaking between actuations. Between 5 and 20 actuations were collected in the ACI assembly. The ACI was disassembled and the components were rinsed with an appropriate amount of solvent that ensures dissolution of all formulation ingredients. The rinsate was collected for analysis by conventional HPLC analysis.

[3] = 0.1% w/w of polymer of formula (II), 12 Week at 40° C./75% relative humidity
[4] = 0.1% w/w of polymer of formula (II), Initial
[5] = surfactant-free, 12 Week at 40° C./75% relative humidity

C[C@@H]1C[C@H]2[C@@H]3C[C@H](F)C4=CC(=O)C=C[C@]4(C)[C@@]3(F)[C@@H](O)C[C@]2(C)[C@@]1(OC(=O)c1ccco1)C(=O)SCF [Compound A, 6α, 9α-Difluoro-17α-[(2-furanylcarbonyl)oxy]-11β-hydroxy-16α-methyl-3-oxo-androsta-1,4-diene-17β-carbothioic acid S-fluoromethyl ester]
overall mean dose of medicament delivered through the actuator, combining beginning and end of use doses ([1]; Example 1: Compound A MDI, 25 μg/act, 0.1% w/w of polymer of formula (II), 12 Week at 40° C./75% relative humidity, target output 22.5 μg/act): 98%
overall mean dose of medicament delivered through the actuator, combining beginning and end of use doses ([1]; Example 1: Compound A MDI, 25 μg/act, 0.1% w/w of polymer of formula (II), Initial, target output 22.5 μg/act): 98%
overall mean dose of medicament delivered through the actuator, combining beginning and end of use doses ([1]; Example 1: Compound A MDI, 25 μg/act, surfactant-free, 12 Week at 40° C./75% relative humidity, target output 22.5 μg/act): 72%
overall mean dose of medicament delivered through the actuator, combining beginning and end of use doses ([1]; Example 1: Compound A MDI, 25 μg/act, surfactant-free, Initial, target output 22.5 μg/act): 66%
overall mean dose of medicament delivered through the actuator, combining beginning and end of use doses ([1]; Example 2: Compound A in combination with Compound B, MDI, 25/10 μg/act, 0.1% w/w of polymer of formula (II), 12 Week at 40° C./75% relative humidity, target output Compound B 8.5 μg, Compound A 22.5 μg): 110%
overall mean dose of medicament delivered through the actuator, combining beginning and end of use doses ([1]; Example 2: Compound A in combination with Compound B, MDI, 25/10 μg/act, 0.1% w/w of polymer of formula (II), Initial, target output Compound B 8.5 μg, Compound A 22.5 μg): 107%
overall mean dose of medicament delivered through the actuator, combining beginning and end of use doses ([1]; Example 2: Compound A in combination with Compound B, MDI, 25/10 μg/act, surfactant-free, 12 Week at 40° C./75% relative humidity, target output Compound B 8.5 μg, Compound A 22.5 μg): 62%
overall mean dose of medicament delivered through the actuator, combining beginning and end of use doses ([1]; Example 2: Compound A in combination with Compound B, MDI, 25/10 μg/act, surfactant-free, Initial, target output Compound B 8.5 μg, Compound A 22.5 μg): 63%
overall mean dose of medicament delivered through the actuator, combining beginning and end of use doses ([1]; Example 3: Compound A in combination with Compound C, MDI, 25/12.5 μg/act, 0.1% w/w polymer of formula (II), 12 Week at 40° C./75 relative humidity, target output Compound C 11.3 μg, Compound A 22.5 μg): 107%
overall mean dose of medicament delivered through the actuator, combining beginning and end of use doses ([1]; Example 3: Compound A in combination with Compound C, MDI, 25/12.5 μg/act, 0.1% w/w polymer of formula (II), Initial, target output Compound C 11.3 μg, Compound A 22.5 μg): 101%
overall mean dose of medicament delivered through the actuator, combining beginning and end of use doses ([1]; Example 3: Compound A in combination with Compound C, MDI, 25/12.5 μg/act, surfactant-free, 12 Week at 40° C./75 relative humidity, target output Compound C 11.3 μg, Compound A 22.5 μg): 76%
overall mean dose of medicament delivered through the actuator, combining beginning and end of use doses ([1]; Example 3: Compound A in combination with Compound C, MDI, 25/12.5 μg/act, surfactant-free, Initial, target output Compound C 11.3 μg, Compound A 22.5 μg): 75%
overall mean dose delivered through the actuator, combining beginning and end of use [1, 3]: 111%
overall mean dose delivered through the actuator, combining beginning and end of use [1, 4]: 106%
overall mean dose delivered through the actuator, combined beginning and end of use [1, 3]: 109%
overall mean dose delivered through the actuator, combined beginning and end of use [1, 4]: 104%
Fine Particle Fraction (FPF) expressed as percentage of 25 μg, the total dose target [2, 3]: 22%
Fine Particle Fraction (FPF) expressed as percentage of 25 μg, the total dose target [2, 4]: 24%
Fine Particle Fraction (FPF) expressed as percentage of 25 μg, the total dose target [2, 5]: 16%
Fine Particle Fraction (FPF) expressed as percentage of 25 μg, the total dose target ([2]; surfactant-free, Initial): 17%
Fine Particle Fraction expressed as a percentage of the total dose target, for Compound B, 10 μg and for the Compound A, 25 μg [2, 3]: 35%
Fine Particle Fraction expressed as a percentage of the total dose target, for Compound B, 10 μg and for the Compound A, 25 μg [2, 4]: 32%
Fine Particle Fraction expressed as a percentage of the total dose target, for Compound B, 10 μg and for the Compound A, 25 μg [2, 5]: 18%
Fine Particle Fraction expressed as a percentage of the total dose target, for Compound B, 10 μg and for the Compound A, 25 μg ([2]; surfactant-free, Initial): 18%
Fine Particle Fraction (FPF) expressed as a percentage of the total dose target, for Compound C, 12.5 μg and for Compound A, 25 μg ([2]; 0.1% w/w polymer of formula (II), 12 Week 40° C./75 relative humidity): 20%
Fine Particle Fraction (FPF) expressed as a percentage of the total dose target, for Compound C, 12.5 μg and for Compound A, 25 μg ([2]; 0.1% w/w polymer of formula (II), Initial): 21%
Fine Particle Fraction (FPF) expressed as a percentage of the total dose target, for Compound C, 12.5 μg and for Compound A, 25 μg ([2]; surfactant-free, 12 Week 40° C./75 relative humidity): 16%
Fine Particle Fraction (FPF) expressed as a percentage of the total dose target, for Compound C, 12.5 μg and for Compound A, 25 μg ([2]; surfactant-free, Initial): 11%
Fine Particle Fraction (FPF) expressed as a percentage of the total dose target, for Compound D, 100 μg, and for Compound A, 100 μg [2, 3]: 19%
Fine Particle Fraction (FPF) expressed as a percentage of the total dose target, for Compound D, 100 μg, and for Compound A, 100 μg [2, 4]: 21%
Fine Particle Fraction (FPF) expressed as percentage of the total dose target of Compound E, 100 μg and for Compound A, 50 μg [2, 3]: 22%
Fine Particle Fraction (FPF) expressed as percentage of the total dose target of Compound E, 100 μg and for Compound A, 50 μg [2, 4]: 23%
